Article PMC9306752, “Sandacrabins – Structurally Unique Antiviral RNA Polymerase Inhibitors from a Rare Myxobacterium” (Chemistry (Weinheim an Der Bergstrasse, Germany), 2022)
In brackets after ≈: the same amount, converted by molar mass. Like-named read-outs stand apart in the source and are kept apart here.

How the values were obtained:
Huh 7.5 cells = experiment: MTT assay, non-infected cells; type: cell-based; details: Homo sapiens, Huh7.5, 120 h
U-2 OS cells = experiment: MTT assay; type: cell-based; details: Homo sapiens, U2OS, 120 h
[1] = target: SARS-CoV-2 RdRp complex (Nsp7, Nsp8, Nsp12) (Severe acute respiratory syndrome coronavirus 2, UniProt P0DTD1); experiment: biochemical; details: full template-length RNA product
[2] = tested on: Escherichia coli ΔacrB JW0451-2; experiment: Antimicrobial MIC determination, serial dilution in 96 well plates; type: cell-based; details: 24 h
HCoV229E = experiment: cells; type: cell-based, human pathogenic coronavirus HCoV229E; details: for IC50: HCoV229E replication in Huh-7.5 cells; for factor between cytotoxic activity (IC50 Huh-7.5) and antiviral activity (IC50 HCoV229E): IC50 Huh-7.5 versus IC50 HCoV229E
Bacillus subtilis DSM-10 = experiment: Antimicrobial MIC determination, serial dilution in 96 well plates; type: cell-based
[3] = tested on: Pseudomonas aeruginosa PA14; experiment: as above; type: cell-based; details: 24 h at 37 °C
Escherichia coli BW25113 = experiment: as above; type: cell-based; details: 24 h at 37 °C
Pichia anomala = experiment: as above; type: cell-based; details: Hansenula anomala
[4] = tested on: Mycobacterium smegmatis mc2 155; experiment: as above; type: cell-based; details: Mycolicibacterium smegmatis, MC2155
[5] = tested on: Staphylococcus aureus Newman; experiment: as above; type: cell-based; details: 24 h at 37 °C
Acyrthosiphon pisum = experiment: Insecticidal activity, direct application to the posterior segment of adult insects; type: in vivo; details: for Death rate at 0.5 μg/insect: adult A. pisum, 0.5 μg/insect in acetone, survival after one hour; for Death rate at 0.5 μg/insect / Death rate: 20 insects; for Death rate: positive control, 0.5 microliter of 0.01 μg/mL in acetone, after one hour
[6] = tested on: Candida albicans DSM-1665; experiment: Antimicrobial MIC determination, serial dilution in 96 well plates; type: cell-based; details: DSM1665
Huh-7.5 host cells = Huh-7.5 host cells in the antiviral assay
[7] = non-infected Huh 7.5 cells, 5 days at 37 °C
[8] = Homo sapiens, Huh7.5, 48 h at 33 °C
[9] = DSM10, 24 h at 37 °C, read-out: MIC

Compound	IC50 [1]	MIC [2]	IC50 (Huh 7.5 cells; [7])	IC50 (HCoV229E; [8])	factor between cytotoxic activity (IC50 Huh-7.5) and antiviral activity (IC50 HCoV229E) (HCoV229E)	MIC (Bacillus subtilis DSM-10; 24 h at 37 °C)	MIC (Bacillus subtilis DSM-10; [9])	MIC [3]	IC50 (U-2 OS cells; 5 days at 37 °C)	MIC (Escherichia coli BW25113)	MIC (Pichia anomala)	MIC [4]	MIC [5]	Death rate at 0.5 μg/insect (Acyrthosiphon pisum)	MIC [6]	further results
COc1cccc2c1C(=O)c1c(O)c3c(c(O)c1C2=O)C[C@@](O)(C(=O)CO)C[C@@H]3O[C@H]1C[C@H](N)[C@H](O)[C@H](C)O1 [Doxorubicin, reference compound]	–	–	–	–	–	–	–	–	–	–	–	–	–	–	–	IC50 (Huh 7.5 cells; positive control, Huh 7.5 cells, 5 days): 0.037 µM; IC50 (U-2 OS cells; positive control, 5 days): 0.015 µM
CC(C)=CCC/C(C)=C/CC/C(C)=C/Cn1c(C)nc2cc(C)c(C)cc21 [Sandacrabin E]	43 µM	> 64 µg/mL	6.72 µM	1.91 µM	3–4 fold	64 µg/mL (≈ 176 µM)	64 µg/mL (≈ 176 µM)	> 64 µg/mL	13.7 µM	> 64 µg/mL	> 64 µg/mL	64 µg/mL (≈ 176 µM)	64 µg/mL (≈ 176 µM)	90%	> 64 µg/mL	–
O=[N+]([O-])NC1=NCCN1Cc1ccc(Cl)nc1 [Imidacloprid, reference compound]	–	–	–	–	–	–	–	–	–	–	–	–	–	–	–	Death rate (Acyrthosiphon pisum): 100 (Imidacloprid) %; Death rate (Acyrthosiphon pisum; listed as imidacloprid): 100%
CC(C)=CCC/C(C)=C/CC/C(C)=C/Cn1c(C)[n+](C/C=C(\C)CC/C=C(\C)CCC=C(C)C)c2cc(C)c(C)cc21 [Sandacrabin C]	6.8 µM	> 64 µg/mL	3.61 µM	0.34 µM	11 fold	128 µg/mL	128 µg/mL	> 64 µg/mL	1.22 µM	> 64 µg/mL	> 64 µg/mL	> 64 µg/mL	64 to 128 µg/mL	90%	> 64 µg/mL	cytotoxic effects on host cells (in words) (Huh-7.5 host cells): cytotoxic effects at the highest test concentration
CN[C@H](CC(C)C)C(=O)N[C@H]1C(=O)N[C@@H](CC(N)=O)C(=O)N[C@H]2C(=O)N[C@H]3C(=O)N[C@H](C(=O)N[C@H](C(=O)O)c4cc(O)cc(O)c4-c4cc3ccc4O)[C@H](O)c3ccc(c(Cl)c3)Oc3cc2cc(c3O[C@@H]2O[C@H](CO)[C@@H](O)[C@H](O)[C@H]2O[C@H]2C[C@](C)(N)[C@H](O)[C@H](C)O2)Oc2ccc(cc2Cl)[C@H]1O [Vancomycin, reference compound]	–	–	–	–	–	–	0.1 to 0.2 µg/mL (≈ 0.069 to 0.138 µM)	–	–	–	–	–	–	–	–	–
CC(C)=CCC/C(C)=C/CC/C(C)=C/Cn1cnc2cc(C)c(C)cc21 [Sandacrabin D]	85 µM	> 64 µg/mL	4.63 µM	1.64 µM	3–4 fold	64 µg/mL (≈ 183 µM)	64 µg/mL (≈ 183 µM)	> 64 µg/mL	16.9 µM	> 64 µg/mL	> 64 µg/mL	64 µg/mL (≈ 183 µM)	64 µg/mL (≈ 183 µM)	100%	> 64 µg/mL	–
CCC(CC)COC(=O)[C@H](C)N[P@](=O)(OC[C@H]1O[C@@](C#N)(c2ccc3c(N)ncnn23)[C@H](O)[C@@H]1O)Oc1ccccc1 [Remdesivir, reference compound]	–	–	–	–	–	–	–	–	–	–	–	–	–	–	–	IC50 (HCoV229E; positive control, 48 h): 0.0056 µM
CC(C)=CCC/C(C)=C/CC/C(C)=C/Cn1c[n+](C/C=C(\C)CC/C=C(\C)CCC=C(C)C)c2cc(C)c(C)cc21 [Sandacrabin B]	3.5 µM	> 64 µg/mL	0.7 µM	0.18 µM	3–4 fold	64 µg/mL	64 µg/mL	> 64 µg/mL	0.51 µM	> 64 µg/mL	> 64 µg/mL	> 64 µg/mL	64 to 128 µg/mL	100%	> 64 µg/mL	cytotoxic effects on host cells (in words) (Huh-7.5 host cells): cytotoxic effects at the highest test concentration
CC(C)=CCC/C(C)=C/CC/C(C)=C/Cn1c(/C=C(\C)CC/C=C(\C)CCC=C(C)C)nc2cc(C)c(C)cc21 [Sandacrabin A]	108 µM	> 64 µg/mL	> 37 µM	> 10 µM	–	32 µg/mL (≈ 59.2 µM)	32 µg/mL (≈ 59.2 µM)	> 64 µg/mL	> 37 µM	> 64 µg/mL	> 64 µg/mL	> 64 µg/mL	128 µg/mL (≈ 237 µM)	10%	> 64 µg/mL	antiviral activity, effect on viral replication (in words) (HCoV229E; cells infected with HCoV229E): did not show any effect on viral replication; minimal insecticidal concentration (Acyrthosiphon pisum; dilution series 5–0.05 μg per insect, test group of three insects): > 5 μg/insect
